According to patent publication US11098041B2 (Merck Patent GmbH, priority 2014, dated 2021):

Legend:
[1] = biological target: full-length human BTK (Homo sapiens (Human), UniProt Q06187); experiment: Assay A: microfluidic off-chip mobility shift assay against BTK enzyme; assay type: biochemical
[2] = biological target: BTK C481S (His-TEV-hsBTK(328-659)(C481S)) (Homo sapiens (Human), UniProt Q06187, C481S); experiment: Assay B: microfluidic off-chip mobility shift assay against BTK C481S enzyme; assay type: biochemical; conditions: BTK C481S mutant
In short: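 Substrate-to-phosphopeptide conversion quantified by microfluidic mobility shift with laser-induced fluorescence; IC50 and efficacy from log[inhibitor] vs. % activity.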

[3] = test system: anti-IgM-induced expression of CD69 on CD19 positive cells (B cells) in human PBMCs; experiment: Assay C: PBMC IC50 assay (anti-IgM-induced CD69 expression); assay type: cell-based; conditions: anti-IgM stimulation
In short: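 Freshly isolated human PBMCs (2.5×10^5/well) pretreated 1 h with compound, then stimulated overnight (~16-18 h) with goat F(ab′)2 anti-human IgM. CD69 on CD19+ B cells measured by flow cytometry; IC50 from percentage CD69+ B cells versus concentration.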

[4] = test system: IL-1β release by human THP-1 cells; experiment: Assay D: THP-1 cells IL-1β release ELISA assay; assay type: cell-based; conditions: PMA and LPS, BzATP stimulation
Experimental: Assay D: THP-1 Cells IL-1β release ELISA Assay
The assay measures IL-1β release by human THP-1 cells after treatment with PMA and LPS in response to BzATP stimulation in order to evaluate the potency of P2X7 inhibitors. THP-1 cells (2×10^5 cells/mL) in culture medium (RPMI1640 (Gibco, #22400-089)+10% HI-FBS (Gibco, #10082-147)+1% L-Glutamine (Gibco, #25030)+1% Pen/Strep (Gibco, #15140) complemented with 0.5 μM PMA (Sigma, #P8139) were incubated for 30 min at 37° C. At the end of the incubation time, the cells were titrated and washed gently in PBS. The cells were then re-suspended to a density of 1.5×10^5 cell/mL in culture medium complemented with 10 ng/mL LPS (Sigma, #L5293). The cell suspension was dispensed (40 μL/well) into a Corning 384-well plate. After 4 hr of incubation at 37° C., the cells were treated with 20 μL of test compounds at various concentrations. The plate was incubated for 30 min at 37° C. and then the cells were treated with 20 μL of 3.2 mM BzATP (Sigma. #B6396) (0.8 mM final concentration). The plate was incubated for an additional 30 min at 37° C., and then subjected to centrifugation (4 min, 1000 rpm). Supernatant (60 μL) from each well was transferred to a 384-matrix PP plate. The plate was then stored at 4° C. (overnight) or −20° C. for longer term storage. The next day, the […] were measured using a human […] ELISA Kit (R & D systems, catalog #DY201) and read using a SpectraMax Plus 384 Microplate Reader.

BTK C481S (His-TEV-hsBTK(328-659)(C481S)), sequence (Q06187 328-659 C481S): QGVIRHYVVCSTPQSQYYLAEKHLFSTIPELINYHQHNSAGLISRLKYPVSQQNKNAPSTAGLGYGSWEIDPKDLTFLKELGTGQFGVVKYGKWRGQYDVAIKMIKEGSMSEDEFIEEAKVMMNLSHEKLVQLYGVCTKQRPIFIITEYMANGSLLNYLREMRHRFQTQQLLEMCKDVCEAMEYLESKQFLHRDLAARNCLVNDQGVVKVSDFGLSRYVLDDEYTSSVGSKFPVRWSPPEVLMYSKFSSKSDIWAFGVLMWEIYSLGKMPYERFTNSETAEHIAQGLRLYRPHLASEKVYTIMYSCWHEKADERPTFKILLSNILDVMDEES
full-length human BTK, sequence (Q06187 whole entry): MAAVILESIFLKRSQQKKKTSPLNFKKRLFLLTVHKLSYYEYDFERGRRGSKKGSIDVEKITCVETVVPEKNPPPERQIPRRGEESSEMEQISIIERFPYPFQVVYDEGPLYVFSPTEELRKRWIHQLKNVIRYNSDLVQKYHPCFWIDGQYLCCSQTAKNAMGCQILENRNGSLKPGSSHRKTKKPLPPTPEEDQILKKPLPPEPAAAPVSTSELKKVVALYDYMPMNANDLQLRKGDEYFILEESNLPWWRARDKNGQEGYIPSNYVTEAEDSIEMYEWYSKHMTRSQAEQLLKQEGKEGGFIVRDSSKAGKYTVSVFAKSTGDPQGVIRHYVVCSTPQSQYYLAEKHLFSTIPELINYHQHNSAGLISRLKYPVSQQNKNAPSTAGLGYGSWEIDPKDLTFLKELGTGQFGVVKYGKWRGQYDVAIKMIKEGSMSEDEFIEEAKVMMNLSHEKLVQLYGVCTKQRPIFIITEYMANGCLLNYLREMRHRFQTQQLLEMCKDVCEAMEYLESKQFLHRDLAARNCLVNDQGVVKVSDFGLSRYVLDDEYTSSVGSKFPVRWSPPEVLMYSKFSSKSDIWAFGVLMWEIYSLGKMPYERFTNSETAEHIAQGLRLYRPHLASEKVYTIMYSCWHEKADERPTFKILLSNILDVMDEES

For CN(C)c1ccc(-c2nc3c(-c4cccc(N5CCOc6cc(C7CC7)cc(F)c6C5=O)c4CO)ccnc3[nH]2)nc1 [Example 41, 8-cyclopropyl-4-(3-[2-[5-(dimethylamino)pyridin-2-yl]-3H-imidazo[4,5-b]pyridin-7-yl]-2-(hydroxymethyl)phenyl)-6-fluoro-2,3,4,5-tetrahydro-1,4-benzoxazepin-5-one], the IC50 [1] was < 100 nM, the IC50 [2] was < 100 nM and the IC50 [3] was 1000 to 5000 nM.
With CN1CC=C(c2ccc(-c3nc4c(-c5ccc(CNC(=O)c6noc(C(C)(C)C)n6)c(F)c5)ccnc4[nH]3)cc2)CC1 [Example 86, 5-tert-Butyl-N-[(2-fluoro-4-[2-[4-(1-methyl-1,2,3,6-tetrahydropyridin-4-yl)phenyl]-3H-imidazo[4,5-b]pyridin-7-yl]phenyl)methyl]-1,2,4-oxadiazole-3-carboxamide; Trifluoroacetic Acid] the IC50 [1] was < 100 nM, the IC50 [2] was < 100 nM and the IC50 [3] was < 100 nM.
With CN(C)c1ccc(-c2nc3c(-c4ccc(C5(NC(=O)c6ccc(C(C)(C)C)cc6)CC5)cc4)ccnc3[nH]2)nc1 [Example 54, 4-tert-Butyl-N-[1-(4-[2-[5-(dimethylamino)pyridin-2-yl]-3H-imidazo[4,5-b]pyridin-7-yl]phenyl)cyclopropyl]benzamide] the IC50 [1] was < 100 nM, the IC50 [2] was 100 to 1000 nM and the IC50 [3] was 100 to 1000 nM.
In the case of Cn1cc(-c2nc3c(-c4ccc(CN5Cc6cc(C7CC7)sc6C5=O)c(F)c4)ccnc3[nH]2)cn1 [Example 93, 2-Cyclopropyl-5-([2-fluoro-4-[2-(1-methyl-1H-pyrazol-4-yl)-3H-imidazo[4,5-b]pyridin-7-yl]phenyl]methyl)-4H,5H,6H-thieno[2,3-c]pyrrol-6-one], the IC50 [1] is reported as < 100 nM, the IC50 [2] is reported as < 100 nM and the IC50 [3] is reported as 100 to 1000 nM.
In the case of COc1ccc(-c2nc3c(-c4ccc(CNC(=O)c5ccc(C(C)(C)C)cc5)c(F)c4)ccnc3[nH]2)cc1 [Example 62, 4-tert-Butyl-N-([2-fluoro-4-[2-(4-methoxyphenyl)-3H-imidazo[4,5-b]pyridin-7-yl]phenyl]methyl) benzamide], the IC50 [1] is reported as < 100 nM, the IC50 [2] is reported as < 100 nM and the IC50 [3] is reported as 100 to 1000 nM.
For CN1CCN(Cc2ccc(-c3nc4c(-c5ccc(CNC(=O)c6noc(C(C)(C)C)n6)c(F)c5)ccnc4[nH]3)cc2)CC1 [Example 71, 5-tert-Butyl-N-[[2-fluoro-4-(2-[4-[(4-methylpiperazin-1-yl)methyl]phenyl]-1H-imidazo[4,5-b]pyridin-7-yl)phenyl]methyl]-1,2,4-oxadiazole-3-carboxamide], the IC50 [1] was < 100 nM, the IC50 [2] was < 100 nM and the IC50 [3] was < 100 nM.
For Cn1cc(-c2nc3c(-c4cccc(NC(=O)c5cc6c(s5)CCCC6)c4CO)ccnc3[nH]2)cn1 [Example 50, N-[2-(hydroxymethyl)-3-[2-(1-methyl-1H-pyrazol-4-yl)-3H-imidazo[4,5-b]pyridin-7-yl]phenyl]-4,5,6,7-tetrahydro-1-benzothiophene-2-carboxamide], the IC50 [1] was < 100 nM, the IC50 [2] was < 100 nM and the IC50 [3] was 100 to 1000 nM.
Cn1cc(-c2nc3c(-c4ccc(CNC(=O)c5cc(C(C)(C)C)on5)c(F)c4)ccnc3[nH]2)cn1 [Example 67, 5-tert-Butyl-N-([2-fluoro-4-[2-(1-methyl-1H-pyrazol-4-yl)-3H-imidazo[4,5-b]pyridin-7-yl]phenyl]methyl)-1,2-oxazole-3-carboxamide] was tested, and the IC50 [1] was < 100 nM, the IC50 [2] was < 100 nM and the IC50 [3] was < 100 nM.
In the case of Cn1cc(-c2nc3c(-c4ccc(C(C)(C)NC(=O)c5ccc(C(C)(C)C)cc5)c(F)c4)ccnc3[nH]2)cn1 [Example 106, 4-tert-Butyl-N-(1-{2-fluoro-4-[2-(1-methyl-1H-pyrazol-4-yl)-3H-imidazo[4,5-b]pyridin-7-yl]-phenyl}-1-methyl-ethyl)-benzamide], the IC50 [1] is reported as < 100 nM, the IC50 [2] is reported as 100 to 1000 nM and the IC50 [3] is reported as 100 to 1000 nM.
With CCn1cc(-c2nc3c(-c4ccc(CNC(=O)c5cc6c(s5)CCCC6)c(F)c4)ccnc3[nH]2)cn1 [Example 130, 4,5,6,7-Tetrahydro-benzo[b]thiophene-2-carboxylic acid 4-[2-(1-ethyl-1H-pyrazol-4-yl)-3H-imidazo[4,5-b]pyridin-7-yl]-2-fluoro-benzylamide] the IC50 [1] was < 100 nM, the IC50 [2] was < 100 nM and the IC50 [3] was 100 to 1000 nM.
For Cn1cc(-c2nc3c(-c4ccc(CNC(=O)c5nnc(C(C)(C)C)o5)cc4)ccnc3[nH]2)cn1 [Example 109, 5-tert-Butyl-[1,3,4]oxadiazole-2-carboxylic acid 4-[2-(1-methyl-1H-pyrazol-4-yl)-3H-imidazo[4,5-b]pyridin-7-yl]-benzylamide], the IC50 [1] was < 100 nM, the IC50 [2] was 1000 to 5000 nM and the IC50 [3] was 1000 to 5000 nM.
Cn1cc(-c2nc3c(-c4ccc(CNC(=O)c5nnc(C(C)(C)C)o5)c(F)c4)ccnc3[nH]2)cn1 [Example 111, 5-tert-Butyl-[1,3,4]oxadiazole-2-carboxylic acid 2-fluoro-4-[2-(1-methyl-1H-pyrazol-4-yl)-3H-imidazo[4,5-b]pyridin-7-yl]-benzylamide] was tested, and the IC50 [1] was < 100 nM, the IC50 [2] was < 100 nM and the IC50 [3] was 100 to 1000 nM.
With CC(C)(O)CCN1Cc2cc(-c3ccnc4[nH]c(-c5ccc(C(=O)N6CCOCC6)cc5)nc34)ccc2C1=O [Example 114, 2-(3-Hydroxy-3-methyl-butyl)-5-{2-[4-(morpholine-4-carbonyl)-phenyl]-3H-imidazo[4,5-b]pyridin-7-yl}-2,3-dihydro-isoindol-1-one] the IC50 [1] was > 5000 nM, the IC50 [2] was > 5000 nM and the IC50 [4] was 1000 to 5000 nM.
CN(C)c1nc(C(=O)NCc2ccc(-c3ccnc4[nH]c(-c5cnn(C)c5)nc34)cc2F)no1 [Example 57, 5-(Dimethylamino)-N-(2-fluoro-4-(2-(1-methyl-1H-pyrazol-4-yl)-3H-imidazo[4,5-b]pyridin-7-yl)benzyl)-1,2,4-oxadiazole-3-carboxamide 2,2,2-trifluoroacetate] was tested, and the IC50 [1] was < 100 nM, the IC50 [2] was < 100 nM and the IC50 [3] was 1000 to 5000 nM.
With Cn1cc(-c2nc3c(-c4ccc(CNC(=O)c5nc(C(C)(C)C)no5)cc4CO)ccnc3[nH]2)cn1 [Example 105, 3-tert-Butyl-[1,2,4]oxadiazole-5-carboxylic acid 3-hydroxymethyl-4-[2-(1-methyl-1H-pyrazol-4-yl)-3H-imidazo[4,5-b]pyridin-7-yl]-benzylamide] the IC50 [1] was < 100 nM, the IC50 [2] was < 100 nM and the IC50 [3] was 1000 to 5000 nM.
For Cc1cc(CNC(=O)c2noc(C(C)(C)C)n2)c(F)cc1-c1ccnc2[nH]c(-c3cnn(C)c3)nc12 [Example 77, 5-tert-butyl-N-([2-fluoro-5-methyl-4-[2-(1-methyl-1H-pyrazol-4-yl)-3H-imidazo[4,5-b]pyridin-7-yl]phenyl]methyl)-1,2,4-oxadiazole-3-carboxamide], the IC50 [1] was < 100 nM, the IC50 [2] was < 100 nM and the IC50 [3] was 1000 to 5000 nM.
With Cn1cc(-c2nc3c(-c4ccc(C5(NC(=O)N6CC(OC(C)(C)C)C6)CC5)c(F)c4)ccnc3[nH]2)cn1 [Example 52, 3-(tert-Butoxy)-N-(1-[2-fluoro-4-[2-(1-methyl-1H-pyrazol-4-yl)-3H-imidazo[4,5-b]pyridin-7-yl]phenyl]cyclopropyl)azetidine-1-carboxamide] the IC50 [1] was < 100 nM, the IC50 [2] was < 100 nM and the IC50 [3] was 100 to 1000 nM.
For Cn1cc(-c2nc3c(-c4cc(F)cc(N5CCOc6cc(C7CC7)cc(F)c6C5=O)c4CO)ccnc3[nH]2)cn1 [Example 37, 8-Cyclopropyl-6-fluoro-4-[5-fluoro-2-(hydroxymethyl)-3-[2-(1-methyl-1H-pyrazol-4-yl)-3H-imidazo [4,5-b]pyridin-7-yl]phenyl]-2,3,4,5-tetrahydro-1,4-benzoxazepin-5-one], the IC50 [1] was < 100 nM, the IC50 [2] was < 100 nM and the IC50 [3] was 100 to 1000 nM.
For Cn1cc(-c2nc3c(-c4ccc(CNC(=O)c5ccc(C6CC6)nc5)c(F)c4)ccnc3[nH]2)cn1 [Example 56, 6-Cyclopropyl-N-([2-fluoro-4-[2-(1-methyl-1H-pyrazol-4-yl)-3H-imidazo[4,5-b]pyridin-7-yl]phenyl]methyl)pyridine-3-carboxamide], the IC50 [1] was < 100 nM, the IC50 [2] was < 100 nM and the IC50 [3] was 1000 to 5000 nM.
In the case of CN(C)c1ccc(-c2nc3c(-c4cccc(N5CCOc6cc(C7CC7)cc(F)c6C5=O)c4CO)ccnc3[nH]2)cc1 [Example 39, 8-Cyclopropyl-4-(3-[2-[4-(dimethylamino)phenyl]-3H-imidazo[4,5-b]pyridin-7-yl]-2-(hydroxymethyl)phenyl)-6-fluoro-2,3,4,5-tetrahydro-1,4-benzoxazepin-5-one], the IC50 [1] is reported as < 100 nM, the IC50 [2] is reported as < 100 nM and the IC50 [3] is reported as 1000 to 5000 nM.
